Results taken from ChEMBL document CHEMBL1201862, “PubChem BioAssay data set” (2004).
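Compound exposure: 48 hours, 5 concentrations, 96-well plates. GI50 is the concentration that inhibits growth by half.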 Activity calls are given as the source filed them. No stated cut-off is given here; in the data, active = GI50 up to about 1.1 µM and inactive = higher.

Tests used:
Assay in all cases: inhibition of tumour cell growth, NCI panel, 48 h
[1] = test system: HOP-18
[2] = test system: XF498
[3] = test system: M19-MEL
[4] = test system: NCI-H226
[5] = test system: LXFL 529
[6] = test system: Hs-578T
[7] = test system: A498

Measured: GI50

O=C(O)C(Cl)(Cl)Cl
inactive: [1] 80 µM | [2] > 100 µM | [3] > 100 µM | [4] > 100 µM | [5] > 100 µM

CC(C)(C)OC(=O)C1=C(C(=O)OC(C)(C)C)SC2(S1)C(C(=O)OC(C)(C)C)=C(C(=O)OC(C)(C)C)Sc1c2ssc1=O
inactive: [6] 75.5 µM | [7] > 100 µM
